Experimental data from patent US11925724B2, “Compounds with dual activity” (priority 2015, dated 2024).
Square brackets hold non-standard residues; d marks the D form. Ends that are not written are not given here. Peptide text beside a SMILES is read from it. Phe(4-F) = N[CH](Cc1ccc(F)cc1)C(=O)O; Dopa = N[CH](Cc1ccc(O)c(O)c1)C(=O)O

Key:
[1] = tested on: Escherichia Coli; assay: Adherence of Escherichia Coli to bare and peptide coated substrates (live bacteria count after biofilm formation); type: cell-based; details: peptide-coated Ti, overnight incubation in bacteria medium, CFU plate counts
Method: To assess the bacterial attachment to the surfaces and the anti-fouling activity of the peptides, the adherence of Escherichia Coli to bare and peptide coated substrates was promoted. Following this, the surfaces incubated overnight in the bacteria medium to enable the biofilm formation. After the incubation, the surfaces were slowly rinsed, swabbed the adhered bacteria and seeded them in order to evaluate the number of live bacteria on the substrates. […] Escherichia coli were grown in LB medium for 5.5 hours at 37° C. in loosely capped erlenmeyer flask with agitation (120 rpm). […] Afterward, LB media (2 mL) were added to each well and the plates were incubated at 37° C. overnight. Each surface was rinsed by shaking the surface in sterilized water three times. A sterile swab was then used to pick up the biofilms attached to the surfaces. The swabs were inserted into eppendorf tubes containing 1 mL of sterilized water and vortexed for 1 min. Each sample was decimally diluted and plated out on dried LB agar (10 g LB and 7.5 g agar per 0.5 L TDW) plate (8 drops of 10 ul for each dilution). Plate counts (CFU mL-1) were carried out after incubation over night at 37° C. The data presents 3 experiments with triplicates for each experiment. The data is given as mean values ±standard deviations. Significant differences between group means were analyzed by t-test and confidence levels were set at 95%.

[2] = Peptide layer thickness on Ti by XPS; type: physicochemical; details: peptide-coated Ti substrate
From the text: Using X-ray Photoelectron Spectrometry (XPS) analysis, the presence of fluorine atoms on the surface and the thickness of the peptide layer were characterized. As expected, in the case of a bare titanium, there was no indication of the presence of fluorine, while in all cases of substrate-coated with peptides, the presence of fluorine signal indicated the deposition of the peptides on the surface (FIG. 3).

Row | Molecule | reduction of live bacteria on substrate as compared to a bare Ti surface [1] | thickness of the peptide layer (XPS) [2] [nm]
1 | N=C(N)NCCCC(NC(=O)C(Cc1ccc(F)cc1)NC(=O)C(Cc1ccc(F)cc1)NC(=O)C(N)Cc1ccc(O)c(O)c1)C(=O)NCC(=O)NC(CC(=O)O)C(N)=O (stereo not drawn) [Peptide 1, DOPA-Phe(4F)-Phe(4F)-Arg-Gly-Asp] (H-[Dopa][Phe(4-F)][Phe(4-F)]RGD-NH2; configuration not given here) | up to 80% | 4.74
2 | N=C(N)NCCCC(NC(=O)C(Cc1ccc(O)c(O)c1)NC(=O)C(Cc1ccc(F)cc1)NC(=O)C(N)Cc1ccc(F)cc1)C(=O)NCC(=O)NC(CC(=O)O)C(N)=O (stereo not drawn) [Peptide 2] (H-[Phe(4-F)][Phe(4-F)][Dopa]RGD-NH2; configuration not given here) | ≤ 82% | 4.33
3 | N=C(N)NCCCC(NC(=O)C(Cc1ccc(F)cc1)NC(=O)C(CC(=O)O)NC(=O)C(N)Cc1ccc(O)c(O)c1)C(=O)NC(Cc1ccc(F)cc1)C(=O)NCC(N)=O (stereo not drawn) [Peptide 3] (H-[Dopa]D[Phe(4-F)]R[Phe(4-F)]G-NH2; configuration not given here) | up to 72% | –
4 | Peptide 4: control peptide with the same amino acids in mixed sequence, without the cell adhesion and the anti-fouling elements ([Dopa][Phe(4-F)]DG[Phe(4-F)]R; not fully specified (C-terminus)) | ≤ 62% | –
